Measurements published in ChEMBL document CHEMBL1138878 (J Med Chem, 2006).
Calls of active or inactive are those of the source. No cut-off for these calls is given here.

Legend:
[1] = test system: Radical scavenging activity; assay: Antioxidant activity measured as ability to react with ABTS radical cation at 15 uM by TRAP assay; assay type: functional
[2] = test system: Radical scavenging activity; assay: Antioxidant activity measured as ability to reduce ferric tripyridyltriazine complex at 15 uM by FRAP assay; assay type: functional
HEK-293T [3] = assay: Inhibition of TNF-alpha-induced NF-kappaB activation in HEK293T cells; assay type: functional, cell-based; settings: Homo sapiens
BV-2 [4] = assay: Suppression of LPS-stimulated COX2 mRNA expression in mouse BV2 cells at 4 uM; assay type: functional
HEK-293T [5] = assay: Loss in viability of human HEK293T cells at 15 uM after 7 hrs relative to control; assay type: functional, cell-based
BV-2 [6] = assay: Suppression of LPS-stimulated COX2 mRNA expression in mouse BV2 cells at 20 uM; assay type: functional, cell-based
BV-2 [7] = assay: Suppression of LPS-stimulated COX2 mRNA expression in mouse BV2 cells at 0.15 uM; assay type: functional, cell-based

Structure (SMILES)	Activity [1]	Activity [2]	IC50 (HEK-293T [3]) [nM]	Activity (BV-2 [4]) [%]	Activity (HEK-293T [5])	Activity (BV-2 [6])	Activity (BV-2 [7])
Oc1ccc(/C=C/c2cc(O)cc(O)c2)cc1 [RESVERATROL]	Active	Active	20000	50	inactive	Active	–
COc1ccc(/C=C/c2ccccc2F)cc1	inactive	inactive	150	–	inactive	–	Active
COc1ccc(/C=C/c2cccc(F)c2)cc1	inactive	inactive	–	–	inactive	–	–
CCOc1ccc(/C=C/c2ccccc2)cc1	inactive	inactive	–	–	inactive	–	–
CN(C)c1ccc(/C=C/c2ccccc2)cc1	Active	Active	150	–	inactive	–	Active
COc1ccc(/C=C/c2cccc(Cl)c2)cc1	inactive	inactive	1000	–	inactive	–	–
COc1ccc(/C=C/c2ccc(C)cc2)cc1	inactive	inactive	900	–	inactive	–	–
COc1ccc(/C=C/c2ccccc2Cl)cc1	inactive	inactive	1500	–	inactive	–	–
COc1ccc(/C=C/c2cccc(O)c2O)cc1	Active	Active	–	–	inactive	–	–
C(=C\c1ccc2ccccc2c1)/c1ccccc1	inactive	inactive	–	–	inactive	–	–
COc1ccc(/C=C/c2cccc(OC)c2)cc1	inactive	inactive	600	–	inactive	–	–
COc1ccc(/C=C/c2ccc(O)c(O)c2)cc1	Active	Active	600	–	inactive	–	–
COc1ccc(/C=C/c2cccc(C)c2)cc1	inactive	inactive	800	–	inactive	–	–
